# PMC11528023, “Transport mechanism and structural pharmacology of human urate transporter URAT1” (Cell Research, 2024)
# Target: T1, URAT1 F449A (Homo sapiens, UniProt Q96S37, F449A)
# T1 construct: expressed in transfected cells; host or cells: HEK293 cells (ATCC, CRL-3216), transient transfection
# T1 sequence (Q96S37 1-553 F449A): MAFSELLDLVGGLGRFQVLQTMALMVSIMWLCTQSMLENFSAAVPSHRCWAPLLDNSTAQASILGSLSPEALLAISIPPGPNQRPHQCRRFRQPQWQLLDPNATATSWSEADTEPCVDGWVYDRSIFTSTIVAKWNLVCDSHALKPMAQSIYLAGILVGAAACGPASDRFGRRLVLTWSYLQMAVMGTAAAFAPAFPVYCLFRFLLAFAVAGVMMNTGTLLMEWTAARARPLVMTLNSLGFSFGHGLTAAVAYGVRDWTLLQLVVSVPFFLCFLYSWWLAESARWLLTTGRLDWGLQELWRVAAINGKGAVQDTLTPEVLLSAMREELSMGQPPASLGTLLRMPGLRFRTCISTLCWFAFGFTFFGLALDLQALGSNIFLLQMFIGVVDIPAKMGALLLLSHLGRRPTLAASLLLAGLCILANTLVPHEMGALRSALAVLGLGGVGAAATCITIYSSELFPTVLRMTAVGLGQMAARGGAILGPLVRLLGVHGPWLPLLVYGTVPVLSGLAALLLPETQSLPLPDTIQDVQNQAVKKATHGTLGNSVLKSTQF
# Format: cell-based
# Details: dose-response of 14C-urate uptake, Fig. 6c
# Source text: Fig. 6 Dotinurad inhibition and the mechanism of URAT1 transport. a Structure of dotinurad-bound URAT1. Detailed interactions between dotinurad and URAT1 are shown on the right. b Dotinurad-binding pocket, depicted in a top view looking down from the extracellular side. c Dose-response curves of URAT1 variants with mutations in the dotinurad-binding site, using the same buffer as defined in Fig. 1 legend. Data are shown as mean ± SD; n = 3 biological replicates. d Comparison between the dotinurad-bound and apo structures. e Schematic diagram of URAT1 importing urate. […]
# Human embryonic kidney (HEK) 293 cells (ATCC, CRL-3216) were seeded onto poly(D-lysine)-coated 96-well plates at a density of 0.3 × 10^5 cells per well and cultured at 37 °C until reaching approximately 70%–80% confluence. […] The cells were then lysed in 0.1 M NaOH, and the lysed samples were added to scintillation liquid to measure radioactivity using a PerkinElmer Microbeta2 counter.
# For dose-response assays, the cells were incubated with urate and increasing concentrations of inhibitors. […] Nonspecific uptake was measured in each plate in non-transfected cells, and this value was subtracted from the total uptake to obtain the URAT1-specific uptake. To compare the uptake signals among URAT1 variants, the mVenus fluorescence intensity of each construct was measured using fluorescence-detection size-exclusion chromatography[49] […]
compound,measurement,value
O=C(c1cc(Cl)c(O)c(Cl)c1)N1CS(=O)(=O)c2ccccc21 [dotinurad],Effect of F449A mutation on drug sensitivity,completely eliminating URAT1’s sensitivity
